The results in this text go back to patent US20230126375A1, “ENGINEERED BACTERIA AND METHODS OF PRODUCING SUSTAINABLE BIOMOLECULES” (PRESIDENT AND FELLOWS OF HARVARD COLLEGE, priority 2020, published 2023).

“Also recorded” adds a separate entry of the source.

The experiment relates to β-oxidation. Put plainly: PHA co-polymer composition of lithotrophic C. necator strains with acrylic acid (GCMS of 3-hydroxy acid methyl esters). In kind it is cell-based. The protocol: PHA extraction and analysis: After 48 hr of growth in the second media exchange, 100 ml lithotrophic PHA-producing C. necator cultures were induced with 0.3% arabinose where indicated along with 240 ug/mL acrylic acid where indicated and grown for 5 days at 30° C. Cultures were harvest, pelleted, and lyophilized overnight. Freeze dried pellets were weighed for dry cell weight. PHA was purified with 0.2 ml/mg DCW of 13% NaClO^− for 4 hr at 30° C., washed twice with dH2O, washed once with acetone, then dried at 25° C. overnight. 1:1 methanol and HCl in dioxane to a final volume of 3 ml (1% pentadecanoate as internal standard), the tubes were sealed with crimp top and incubated in oil bath at 90° C. for 20 hr. Tubes were placed on ice, once cooled, 2 ml of chloroform was added and vigorously vortexed, 3 ml of dH2O was added followed by extensive vortexing, the organic phase was separated by centrifugation (10 min, 4,000×g), organic phase removed and stored at −20° C. until GCMS analysis.
GCMS analysis: PHA samples were analyzed by GC-MS 5975/7890 (Agilent Technologies™) on a DB-35 ms column. Samples were heated on a gradient from 40 to 250° C. at 5° C./min. The co-polymer composition was determined with the mass spectra of the 3-hydroxy alkanoic acid methyl esters at m/z=103 and NIST Mass Spectral Library™.

`C=CC(=O)O` [acrylic acid]: the “effect on PHA composition” value (PAS826 (wildtype phaC) and PAS827 (ΔphaC), 240 μg/mL acrylic acid with induction) was “no effect; also recorded: not strongly affected”. The “proportion of 3HO and 3HD” value (PAS828, 240 μg/mL acrylic acid) is reported as “decreased to undetectable levels”. The “contribution to PHA composition” value (PAS828 / PAS829 (UcFatB2, phaC1Pa), 240 μg/mL acrylic acid) is given as “did not contribute significantly”. Also, for the setting “PAS829, 240 μg/mL acrylic acid”, the “copolymer composition compared to no-acrylic acid condition” value was “slightly enriched for longer-chain fatty acids”. In addition, the “mcl-3HA proportion of PHA” value (PAS830 (native phaC, chim4, phaC1Ps), with acrylic acid, mean) is 72.6% and the “mcl-3HA proportion of PHA” value (PAS832 (native phaC, UcFatB2, phaC2Pa), with acrylic acid, n=3) is 59.4%. Besides, the “3HO proportion of PHA” value reads like this: (PAS830, with acrylic acid, mean) 54.6%; (PAS831, with acrylic acid, n=2) 61.4%. Besides, the “enrichment of mcl-3HAs” value (PAS831, after the addition of acrylic acid) is reported as “minor enrichment”. Further, the “3HD proportion of PHA” value (PAS831, with acrylic acid, n=2) worked out at 7.1%. The “3HDD proportion of PHA” value by setting is: (PAS831, with acrylic acid, n=2) 2.6%; (PAS832, with acrylic acid, n=3) 36.3%; (PAS833 (ΔphaC, UcFatB2, phaC2Pa), with acrylic acid) 60.3%. The “3HTD proportion of PHA” value (PAS831, with acrylic acid, n=2) is recorded as 1.2%.
